Assay results reported in US11542262B2, “Phosphatidylinositol 3-kinase inhibitors” (NANJING ZHENGXIANG PHARMACEUTICALS CO., LTD., priority 2019, dated 2023).
≈ marks a conversion by molar mass, not a printed value.

Assays:
[1] = molecular target: PI3Kγ (Homo sapiens, UniProt P48736); assay: ADP-Glo luminescent assay, enzymatic activity of PI3K gamma; format: biochemical; conditions: ATP 25 μM; read-out: PI3K gamma (nM) inhibitory activity (IC50)
Protocol: The compounds would be tested from 1 or 10 μM, 3-fold dilution for 10 doses, in duplicate.
(§1) Compound preparation: Dilute a compound to 100× of the final desired highest inhibitor concentration in reaction by 100% DMSO. Transfer 100 μl of this compound dilution to a well in a 96-well plate and serially dilute it with DMSO for a total of 10 concentrations.
Kinase reaction: Prepare a solution of PI3K in 1× kinase buffer at 2-fold the final concentration of each reagent in the assay. Control wells contain 1× kinase buffer without enzyme. Prepare substrate solution of PIP2 substrate and ATP in 1× kinase reaction buffer at 2-fold of the final concentration. Add concentration substrate solution to each well to the final concentration. Cover the assay plate, shake to mix, and incubate at room temperature for 1 hour. Add 5 μl of ADP-Glo reagent to each well to stop the reaction. […] Add 10 ul Kinase Detection Reagent to each well, shake 1 min, equilibrate for 30 min before reading on a luminescence plate reader.
(§2) Data Analysis: Convert RLU values to percent inhibition values as Percent inhibition=(max−sample RLU)/(max−min)*100. “min”—no enzyme control; “max”—DMSO control. Fit the data in XLFit excel add-in version 5.4.0.8 to obtain IC50 values. Y=Bottom+(Top−Bottom)/(1+(IC50/X)^HillSlope).

[2] = molecular target: PI3Kδ (Homo sapiens, UniProt O00329); assay: ADP-Glo luminescent assay, enzymatic activity of PI3K delta; format: biochemical; conditions: ATP 25 μM; read-out: PI3K delta (nM) inhibitory activity (IC50)
Chain of PI3Kδ (O00329 whole entry, species assumed, canonical isoform): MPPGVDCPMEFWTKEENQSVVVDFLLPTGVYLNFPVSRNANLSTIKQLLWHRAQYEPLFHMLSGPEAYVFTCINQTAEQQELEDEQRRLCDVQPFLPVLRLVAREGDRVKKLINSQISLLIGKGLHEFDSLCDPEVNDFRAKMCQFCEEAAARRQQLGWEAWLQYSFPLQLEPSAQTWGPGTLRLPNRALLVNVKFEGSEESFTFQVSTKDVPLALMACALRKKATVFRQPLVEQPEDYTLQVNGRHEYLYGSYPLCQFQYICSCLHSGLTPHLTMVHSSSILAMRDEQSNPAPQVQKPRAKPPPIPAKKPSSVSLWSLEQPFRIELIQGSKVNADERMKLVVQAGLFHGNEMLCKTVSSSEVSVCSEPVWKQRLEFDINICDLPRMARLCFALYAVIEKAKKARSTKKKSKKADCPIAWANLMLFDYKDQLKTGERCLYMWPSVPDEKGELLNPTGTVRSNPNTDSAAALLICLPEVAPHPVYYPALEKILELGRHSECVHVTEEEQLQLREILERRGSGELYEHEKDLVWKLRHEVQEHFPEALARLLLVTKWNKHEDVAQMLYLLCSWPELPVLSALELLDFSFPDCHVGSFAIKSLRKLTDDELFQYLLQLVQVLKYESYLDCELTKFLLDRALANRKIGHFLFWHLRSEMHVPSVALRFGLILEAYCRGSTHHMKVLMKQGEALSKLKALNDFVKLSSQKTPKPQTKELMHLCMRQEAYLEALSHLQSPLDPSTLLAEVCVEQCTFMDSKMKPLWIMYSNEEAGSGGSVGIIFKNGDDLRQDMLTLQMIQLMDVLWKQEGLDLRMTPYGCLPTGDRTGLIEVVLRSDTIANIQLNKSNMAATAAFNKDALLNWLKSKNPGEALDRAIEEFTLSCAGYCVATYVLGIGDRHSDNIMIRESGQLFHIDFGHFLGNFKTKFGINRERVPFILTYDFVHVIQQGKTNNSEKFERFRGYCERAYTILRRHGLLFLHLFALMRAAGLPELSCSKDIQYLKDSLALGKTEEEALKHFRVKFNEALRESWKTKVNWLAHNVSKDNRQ
Chain of PI3Kδ (P27986 whole entry partner, species assumed, canonical isoform): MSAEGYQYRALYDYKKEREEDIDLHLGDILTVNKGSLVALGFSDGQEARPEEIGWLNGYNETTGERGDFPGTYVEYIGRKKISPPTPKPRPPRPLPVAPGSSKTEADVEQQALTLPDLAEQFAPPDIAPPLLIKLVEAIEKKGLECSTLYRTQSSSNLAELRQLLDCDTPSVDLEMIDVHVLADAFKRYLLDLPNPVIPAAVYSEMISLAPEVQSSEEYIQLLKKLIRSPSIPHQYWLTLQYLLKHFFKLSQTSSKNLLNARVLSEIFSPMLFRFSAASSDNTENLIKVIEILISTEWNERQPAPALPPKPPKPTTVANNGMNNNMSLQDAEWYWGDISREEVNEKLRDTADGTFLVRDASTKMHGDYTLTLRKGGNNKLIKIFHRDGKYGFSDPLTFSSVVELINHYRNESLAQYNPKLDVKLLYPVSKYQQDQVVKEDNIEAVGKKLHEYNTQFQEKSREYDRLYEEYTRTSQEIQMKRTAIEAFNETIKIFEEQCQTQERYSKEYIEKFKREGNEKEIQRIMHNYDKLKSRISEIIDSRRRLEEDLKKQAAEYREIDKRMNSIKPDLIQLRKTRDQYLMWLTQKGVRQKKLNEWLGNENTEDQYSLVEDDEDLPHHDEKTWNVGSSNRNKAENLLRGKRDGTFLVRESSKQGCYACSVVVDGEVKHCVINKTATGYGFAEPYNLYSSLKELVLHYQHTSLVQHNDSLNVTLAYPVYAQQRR
Protocol: Enzymatic activity of PI3K isoforms: Enzymatic activity of the class I PI3K isoforms in the presence of the compounds of Table 1 was measured using ADP-Glo luminescent assay against PI3Kα, PI3Kβ, PI3Kδ and PI3Kγ with ATP concentration at 25 μM. […] The compounds would be tested from 1 or 10 μM, 3-fold dilution for 10 doses, in duplicate.
as §1
Kinase reaction: Prepare a solution of PI3K in 1× kinase buffer at 2-fold the final concentration of each reagent in the assay. Control wells contain 1× kinase buffer without enzyme. Prepare substrate solution of PIP2 substrate and ATP in 1× kinase reaction buffer at 2-fold of the final concentration. Add concentration substrate solution to each well to the final concentration. Cover the assay plate, shake to mix, and incubate at room temperature for 1 hour. Add 5 μl of ADP-Glo reagent to each well to stop the reaction. Mix briefly with a quick spin, shake slowly on the shaker for 120 min. Add 10 ul Kinase Detection Reagent to each well, shake 1 min, equilibrate for 30 min before reading on a luminescence plate reader.
as §2

[3] = molecular target: T1, PI3K gamma (Mus musculus, UniProt Q9JHG7); assay: Raw264.7 cell assay: phosphorylation of AKT in C5a stimulated RAW264.7 cells (AlphaLISA); format: cell-based; conditions: pAKT, read-out: PI3K gamma Raw264.7 cell (nM) cellular activity (IC50)
T1 construct: endogenous in cells; host or cells: RAW264.7
T1 sequence (Q9JHG7 whole entry): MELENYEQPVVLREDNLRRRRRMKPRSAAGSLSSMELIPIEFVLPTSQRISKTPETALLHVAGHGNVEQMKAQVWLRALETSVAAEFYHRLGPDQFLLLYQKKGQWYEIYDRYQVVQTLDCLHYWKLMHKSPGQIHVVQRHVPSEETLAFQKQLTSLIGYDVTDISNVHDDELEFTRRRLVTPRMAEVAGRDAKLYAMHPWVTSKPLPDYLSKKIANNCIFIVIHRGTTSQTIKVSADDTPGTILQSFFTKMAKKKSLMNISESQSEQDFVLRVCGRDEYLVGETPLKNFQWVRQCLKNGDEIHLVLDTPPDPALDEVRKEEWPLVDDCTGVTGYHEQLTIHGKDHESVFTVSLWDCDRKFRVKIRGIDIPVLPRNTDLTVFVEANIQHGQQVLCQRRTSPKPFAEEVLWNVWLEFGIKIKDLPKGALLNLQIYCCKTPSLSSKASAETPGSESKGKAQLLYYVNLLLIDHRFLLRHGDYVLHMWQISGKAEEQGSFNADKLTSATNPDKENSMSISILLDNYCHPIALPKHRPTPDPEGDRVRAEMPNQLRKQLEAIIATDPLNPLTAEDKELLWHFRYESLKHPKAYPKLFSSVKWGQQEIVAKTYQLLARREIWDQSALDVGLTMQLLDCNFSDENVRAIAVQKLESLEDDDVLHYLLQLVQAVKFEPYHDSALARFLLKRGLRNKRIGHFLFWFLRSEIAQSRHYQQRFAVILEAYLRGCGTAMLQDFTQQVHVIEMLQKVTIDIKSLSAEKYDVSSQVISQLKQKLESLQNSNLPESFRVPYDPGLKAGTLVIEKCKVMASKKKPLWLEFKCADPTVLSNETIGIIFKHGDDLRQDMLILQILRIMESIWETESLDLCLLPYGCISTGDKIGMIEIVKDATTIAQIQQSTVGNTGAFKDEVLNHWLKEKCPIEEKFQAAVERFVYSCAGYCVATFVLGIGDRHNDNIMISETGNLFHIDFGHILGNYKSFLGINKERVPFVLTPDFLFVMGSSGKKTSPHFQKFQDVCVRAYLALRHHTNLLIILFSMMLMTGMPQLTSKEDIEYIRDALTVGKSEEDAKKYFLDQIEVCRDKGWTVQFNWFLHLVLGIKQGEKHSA
T1 sequence (Q5SW28 whole entry partner): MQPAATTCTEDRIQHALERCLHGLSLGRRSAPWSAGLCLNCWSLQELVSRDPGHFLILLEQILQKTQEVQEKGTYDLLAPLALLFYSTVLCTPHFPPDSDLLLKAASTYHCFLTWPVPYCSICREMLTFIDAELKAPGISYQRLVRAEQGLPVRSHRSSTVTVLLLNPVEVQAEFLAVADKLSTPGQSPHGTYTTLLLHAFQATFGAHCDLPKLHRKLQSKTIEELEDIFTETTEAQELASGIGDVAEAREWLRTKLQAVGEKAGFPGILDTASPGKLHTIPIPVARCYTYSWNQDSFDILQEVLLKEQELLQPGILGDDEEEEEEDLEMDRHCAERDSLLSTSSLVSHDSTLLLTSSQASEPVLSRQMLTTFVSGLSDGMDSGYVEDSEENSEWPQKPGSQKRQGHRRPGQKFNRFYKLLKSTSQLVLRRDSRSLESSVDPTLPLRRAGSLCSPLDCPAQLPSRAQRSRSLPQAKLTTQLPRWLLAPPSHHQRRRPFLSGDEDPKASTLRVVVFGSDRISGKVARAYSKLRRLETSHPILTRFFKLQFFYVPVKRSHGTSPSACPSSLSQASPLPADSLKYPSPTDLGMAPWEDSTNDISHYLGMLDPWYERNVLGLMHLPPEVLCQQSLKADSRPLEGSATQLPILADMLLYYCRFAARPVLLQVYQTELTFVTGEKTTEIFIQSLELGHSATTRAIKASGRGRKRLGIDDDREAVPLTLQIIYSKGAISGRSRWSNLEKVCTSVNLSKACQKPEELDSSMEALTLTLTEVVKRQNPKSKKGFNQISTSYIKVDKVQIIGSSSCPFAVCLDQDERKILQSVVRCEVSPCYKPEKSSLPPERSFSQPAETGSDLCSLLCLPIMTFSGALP
Protocol: This study aims to determine the inhibitory effect of compounds on PI3K gamma and PI3K delta in corresponding cell based assays. PI3K gamma activity was reflected by phosphorylation of AKT in C5a stimulated RAW264.7 cells, and PI3K delta activity was reflected by phosphorylation of AKT in anti-IgM stimulated Raji cells. Phosphorylation of AKT in cells was determined using AlphaLISA technology from PerkinElmer.
Raw264.7 cell assay: Prepare Passage 15 Raw264.7 cell and add 6 μL of 30K cells per well in 384-well plate by multidrop. Centrifuge at 500 RPM for 30 s and incubate for 2 hours at 37° C., 5% CO2. Add 30 nL compound by echo and incubate for 30 min at 37° C., 5% CO2. […] Add 2 μL of 5× lysis buffer by multidrop, incubate for 10 min on a plate shaker. Add 5 μL acceptor mix provided in the kit, centrifuge at 1000 RPM for 1 min. Add 5 μL donor mix provided in the kit, centrifuge at 1000 RPM for 1 min and incubate in dark for 2 hours at 25° C. Read AlphaLISA signal on Envision.
Y=Bottom+(Top−Bottom)/(1+10^((Log IC50−X)*Hill Slope)) X: Log of cpd concentration Y: Inhibition

[4] = Kinetic solubility test in PBS pH7.4; format: physicochemical; conditions: aqueous buffer, kinetic from dmso stock; PBS pH 7.4, 25° C., 2 hours
Protocol: 15 μL of stock solution (10 mM) was placed in order into their proper 96-well rack. 485 μL of PBS pH7.4 was added into each vial of the cap-less Solubility Sample plate. The assay was performed in singlet. Add one stir stick to each vial and seal using a molded PTFE/Silicone plug. […] After completion of the 2 hours, the samples from the Solubility Sample plate were transferred into the filter plate. all the samples were filtered using the Vacuum Manifold. Aliquot of 5 μL was taken from the filtrate followed by addition of 495 μL of a mixture of H2O and acetonitrile containing internal standard (1:1). A certain proportion of ultrapure water was used to dilute the diluent according to the peak shape. The dilution factor was changed according to the solubility values and the LC-MS signal response.
Preparation of 3 μM standards (STD): From the 10 mM DMSO STD plate, 6 μL was transferred into the remaining empty plate, and then 194 μL of DMSO was added to that plate to have a STD concentration of 300 μM. From the 300 μM DMSO STD plate, 5 μL was transferred into the remaining empty plate, and then 495 μL of a mixture of H2O and acetonitrile containing internal standard (1:1) was added to that plate to have a final STD concentration of 3 μM. A certain proportion of ultrapure water was used to dilute the diluent according to the peak shape. The concentrations of the standard samples were changed according to the LC-MS signal response.
Procedure for sample analysis: The plate was placed into the well plate autosampler. The samples were evaluated by LC-MS/MS analysis.
Data analysis: All calculations were carried out using Microsoft Excel.
The filtrate was analyzed and quantified against a standard of known concentration using LC coupled with mass spectral peak identification and quantitation. Solubility values of the test compound and control compound were calculated as follows:
[formula] • Any value of the compounds that was not within the specified limits was rejected and the experiment was repeated.

Chain of PI3Kγ (P48736 whole entry, species assumed): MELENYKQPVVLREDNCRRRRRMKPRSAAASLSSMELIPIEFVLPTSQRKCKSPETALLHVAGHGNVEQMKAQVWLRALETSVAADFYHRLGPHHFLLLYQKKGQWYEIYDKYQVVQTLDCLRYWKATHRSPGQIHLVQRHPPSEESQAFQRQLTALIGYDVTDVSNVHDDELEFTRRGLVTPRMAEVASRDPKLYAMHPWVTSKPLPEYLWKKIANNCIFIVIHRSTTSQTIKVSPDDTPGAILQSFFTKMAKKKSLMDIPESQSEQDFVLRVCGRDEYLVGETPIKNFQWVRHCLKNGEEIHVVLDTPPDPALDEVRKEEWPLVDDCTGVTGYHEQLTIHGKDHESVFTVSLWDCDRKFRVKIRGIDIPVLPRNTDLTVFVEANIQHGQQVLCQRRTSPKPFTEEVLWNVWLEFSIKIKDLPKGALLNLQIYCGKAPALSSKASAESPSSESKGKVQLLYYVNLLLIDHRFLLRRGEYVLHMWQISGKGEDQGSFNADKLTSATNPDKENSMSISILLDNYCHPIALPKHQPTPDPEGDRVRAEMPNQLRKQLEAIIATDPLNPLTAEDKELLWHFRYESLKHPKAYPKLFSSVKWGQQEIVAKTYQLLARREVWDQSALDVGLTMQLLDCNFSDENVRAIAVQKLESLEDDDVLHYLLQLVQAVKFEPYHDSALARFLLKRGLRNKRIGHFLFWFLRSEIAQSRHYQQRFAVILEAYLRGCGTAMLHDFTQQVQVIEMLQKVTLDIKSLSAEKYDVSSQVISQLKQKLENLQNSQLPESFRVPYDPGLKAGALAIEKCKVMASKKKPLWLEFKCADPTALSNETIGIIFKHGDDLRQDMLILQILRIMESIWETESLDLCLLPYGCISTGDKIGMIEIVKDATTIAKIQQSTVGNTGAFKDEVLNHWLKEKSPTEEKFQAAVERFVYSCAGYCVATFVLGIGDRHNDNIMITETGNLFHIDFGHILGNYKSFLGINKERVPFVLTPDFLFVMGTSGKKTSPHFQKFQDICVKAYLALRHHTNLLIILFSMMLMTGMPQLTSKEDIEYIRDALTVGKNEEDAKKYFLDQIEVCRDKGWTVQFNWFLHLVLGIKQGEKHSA

For CCC(=O)Nc1nc(C)c(-c2cc3c(c(P(C)(C)=O)c2)C(=O)N([C@@H](C)C2CC2)C3)s1 [Compound 2, (S)-N-(5-(2-(1-cyclopropylethyl)-7-(dimethylphosphoryl)-1-oxoisoindolin-5-yl)-4-methylthiazol-2-yl)propionamide], the IC50 [1] was 3.7 nM and the IC50 [2] was > 1000 nM.
For CC(=O)Nc1nc(C)c(-c2cnc3c(c2)CN([C@@H](C)C2CC2)C3=O)s1 [Compound 8, (S)-N-(5-(6-(1-cyclopropylethyl)-7-oxo-6,7-dihydro-5H-pyrrolo[3,4-b]pyridin-3-yl)-4-methylthiazol-2-yl)acetamide], the IC50 [1] was 34 nM, the IC50 [2] was 361 nM and the IC50 [3] was 115 nM.
In the case of CC(=O)Nc1nc(C)c(-c2ccc3c(c2)CN([C@@H](C)C2CC2)C3=O)s1 [Compound 10, (S)-N-(5-(2-(1-cyclopropylethyl)-1-oxoisoindolin-5-yl)-4-methylthiazol-2-yl)acetamide], the IC50 [1] is reported as 2.5 nM, the IC50 [2] is reported as 359 nM and the IC50 [3] is reported as 290 nM.
For CC(=O)Nc1nc(C)c(-c2cc3c(c(NC(=O)C4CC4)n2)C(=O)N([C@@H](C)C2CC2)C3)s1 [Compound 26, (S)-N-(6-(2-acetamido-4-methylthiazol-5-yl)-2-(1-cyclopropylethyl)-3-oxo-2,3-dihydro-M-pyrrolo[3,4-c]pyridin-4-yl)cyclopropanecarboxamide], the IC50 [1] was 1.4 nM and the IC50 [2] was > 1000 nM.
For CNC(=O)c1nc(-c2sc(NC(C)=O)nc2C)cc2c1C(=O)N([C@@H](C)C1CC1)C2 [Compound 32, (S)-6-(2-acetamido-4-methylthiazol-5-yl)-2-(1-cyclopropylethyl)-N-methyl-3-oxo-2,3-dihydro-1H-pyrrolo[3,4-c]pyridine-4-carboxamide], the IC50 [1] was 2.2 nM and the IC50 [3] was 208 nM.
CC(=O)Nc1nc(C)c(-c2cc3c(c(N4CCNCC4)n2)C(=O)N([C@@H](C)C2CC2)C3)s1 [Compound 39, (S)-N-(5-(2-(1-cyclopropylethyl)-3-oxo-4-(piperazin-1-yl)-2,3-dihydro-1H-pyrrolo[3,4-c]pyridin-6-yl)-4-methylthiazol-2-yl)acetamide] gave an IC50 [1] of 3.7 nM and an IC50 [3] of 271 nM.
Work on CC(=O)Nc1nc(C)c(-c2cc3c(c(N4CCN(C(C)=O)CC4)n2)C(=O)N([C@@H](C)C2CC2)C3)s1 [Compound 40, (S)-N-(5-(4-(4-acetylpiperazin-1-yl)-2-(1-cyclopropylethyl)-3-oxo-2,3-dihydro-1H-pyrrolo[3,4-c]pyridin-6-yl)-4-methylthiazol-2-yl)acetamide] yielded an IC50 [1] of 2 nM, an IC50 [3] of 6.3 nM and a solubility at 2 h [4] of 25 µM (≈ 12.1 µg/mL).
Molecule CC(=O)Nc1ncc(-c2cc3c(c(N4CCOCC4)n2)C(=O)N([C@@H](C)C2CC2)C3)s1 [Compound 41, (S)-N-(5-(2-(1-cyclopropylethyl)-4-morpholino-3-oxo-2,3-dihydro-1H-pyrrolo[3,4-c]pyridin-6-yl)thiazol-2-yl)acetamide] has an IC50 [1] of 2.3 nM and a solubility at 2 h [4] of 3.5 µM (≈ 1.5 µg/mL).
With COCCOc1nc(-c2sc(NC(C)=O)nc2C)cc2c1C(=O)N([C@@H](C)C1CC1)C2 [Compound 42, (S)-N-(5-(2-(1-cyclopropylethyl)-4-(2-methoxyethoxy)-3-oxo-2,3-dihydro-1H-pyrrolo[3,4-c]pyridin-6-yl)-4-methylthiazol-2-yl)acetamide] the IC50 [1] was 1.8 nM and the solubility at 2 h [4] was 2.6 µM (≈ 1.12 µg/mL).
In the case of CC(=O)Nc1nc(C)c(-c2cc3c(c(N4CCC(O)CC4)n2)C(=O)N([C@@H](C)C2CC2)C3)s1 [Compound 46, (S)-N-(5-(2-(1-cyclopropylethyl)-4-(4-hydroxypiperidin-1-yl)-3-oxo-2,3-dihydro-1H-pyrrolo[3,4-c]pyridin-6-yl)-4-methylthiazol-2-yl)acetamide], the IC50 [1] is reported as 0.7 nM, the IC50 [3] is reported as 3.8 nM and the solubility at 2 h [4] is reported as 6.1 µM (≈ 2.78 µg/mL).
CC(=O)Nc1nc(C)c(-c2cc3c(c(N4CC(O)C4)n2)C(=O)N([C@@H](C)C2CC2)C3)s1 [Compound 48, (S)-N-(5-(2-(1-cyclopropylethyl)-4-(3-hydroxyazetidin-1-yl)-3-oxo-2,3-dihydro-1H-pyrrolo[3,4-c]pyridin-6-yl)-4-methylthiazol-2-yl)acetamide] gave an IC50 [1] of 0.84 nM and an IC50 [3] of 14 nM.
With CC(=O)Nc1nc(C)c(-c2cc3c(c(N4CC(S(C)(=O)=O)C4)n2)C(=O)N([C@@H](C)C2CC2)C3)s1 [Compound 49, (S)-N-(5-(2-(1-cyclopropylethyl)-4-(3-(methylsulfonyl)azetidin-1-yl)-3-oxo-2,3-dihydro-1H-pyrrolo[3,4-c]pyridin-6-yl)-4-methylthiazol-2-yl)acetamide] the IC50 [1] was 1 nM and the IC50 [3] was 38 nM.
In the case of CC(=O)Nc1nc(C)c(-c2cc3c(c(OCCO)n2)C(=O)N([C@@H](C)C2CC2)C3)s1 [Compound 50, (S)-N-(5-(2-(1-cyclopropylethyl)-4-(2-hydroxyethoxy)-3-oxo-2,3-dihydro-1H-pyrrolo[3,4-c]pyridin-6-yl)-4-methylthiazol-2-yl)acetamide], the IC50 [1] is reported as 1 nM and the IC50 [3] is reported as 20 nM.
CC(=O)Nc1nc(C)c(-c2cc3c(c(OC4COC4)n2)C(=O)N([C@@H](C)C2CC2)C3)s1 [Compound 52, (S)-N-(5-(2-(1-cyclopropylethyl)-4-(oxetan-3-yloxy)-3-oxo-2,3-dihydro-1H-pyrrolo[3,4-c]pyridin-6-yl)-4-methylthiazol-2-yl)acetamide] gave an IC50 [1] of 1.1 nM and an IC50 [3] of 12 nM.
For CC(=O)Nc1nc(C)c(-c2cc3c(c(CN4CCOCC4)n2)C(=O)N([C@@H](C)C2CC2)C3)s1 [Compound 54, (S)-N-(5-(2-(1-cyclopropylethyl)-4-(morpholinomethyl)-3-oxo-2,3-dihydro-1H-pyrrolo[3,4-c]pyridin-6-yl)-4-methylthiazol-2-yl)acetamide], the IC50 [1] was 4.6 nM and the IC50 [3] was 17 nM.
CC(=O)Nc1nc(C)c(-c2cc3c(c(C(C)N4CCOCC4)n2)C(=O)N([C@@H](C)C2CC2)C3)s1 (stereo partly drawn) [Compound 55, N-(5-(2-((S)-1-cyclopropylethyl)-4-(1-morpholinoethyl)-3-oxo-2,3-dihydro-1H-pyrrolo[3,4-c]pyridin-6-yl)-4-methylthiazol-2-yl)acetamide] gave an IC50 [1] of 1.7 nM and an IC50 [3] of 18 nM.
Molecule C[C@H](NC(=O)c1c(N)nn2cccnc12)c1cc2cccc(C#Cc3cnn(C)c3)c2c(=O)n1-c1ccccc1 [IPI-549, reference compound] has a solubility at 2 h [4] of 6.4 µM (≈ 3.38 µg/mL).
